# Measured values from ChEMBL document CHEMBL4476873, “Substituted urea depsipeptide analogs as activators of the clpp endopeptidase” (2018).
# How the values were obtained:
# Staphylococcus aureus [1] = assay: Antimicrobial activity against Staphylococcus aureus ATCC 29213 incubated overnight under aerobic condition by microbroth dilution method; type: functional
# Staphylococcus aureus [2] = assay: Antimicrobial activity against Staphylococcus aureus NRS70 incubated overnight under aerobic condition by microbroth dilution method; type: functional
# Staphylococcus aureus [3] = assay: Antimicrobial activity against Staphylococcus aureus USA300 incubated overnight under aerobic condition by microbroth dilution method; type: functional
# Streptococcus pyogenes = assay: Antimicrobial activity against Streptococcus pyogenes ATCC 700294 incubated overnight under aerobic condition by microbroth dilution method; type: functional
# Staphylococcus aureus [4] = assay: Antimicrobial activity against Staphylococcus aureus USA300 deficient in ClpP incubated overnight under aerobic condition by microbroth dilution method; type: functional
# [5] = target: T1, ATP-dependent Clp protease proteolytic subunit (Staphylococcus aureus (strain NCTC 8325), UniProt Q2G036); assay: Displacement of ADEP2591 from Staphylococcus aureus ClpP expressed in Escherichia coli BL21 (DE3) incubated for 120 mins by fluorescence polarization assay
# T1 sequence (Q2G036 whole entry): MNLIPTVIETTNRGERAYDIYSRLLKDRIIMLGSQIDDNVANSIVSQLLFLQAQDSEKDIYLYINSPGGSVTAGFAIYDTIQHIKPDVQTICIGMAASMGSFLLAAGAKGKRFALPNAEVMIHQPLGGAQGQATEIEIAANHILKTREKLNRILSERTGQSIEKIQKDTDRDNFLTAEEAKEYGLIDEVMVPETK
# Vero = assay: Cytotoxicity in African green monkey Vero cells assessed as reduction in cell viability incubated for 72 hrs by cell-titer-Glo luminescent cell viability assay; type: cell-based; settings: Chlorocebus sabaeus
# Bacillus subtilis = assay: Antimicrobial activity against Bacillus subtilis ATCC 23857 incubated overnight under aerobic condition by microbroth dilution method; type: functional
# Streptococcus pneumoniae = assay: Antimicrobial activity against Streptococcus pneumoniae R6 incubated overnight under aerobic condition by microbroth dilution method; type: functional
MIC (Staphylococcus aureus [1]),MIC (Staphylococcus aureus [2]),MIC (Staphylococcus aureus [3]),MIC (Streptococcus pyogenes),MIC (Staphylococcus aureus [4]),Compound,other results
3.13 µM,3.13 µM,–,–,–,COc1cccc(NC(=O)N[C@@H](Cc2ccccc2)C(=O)N[C@H]2COC(=O)[C@@H]3C[C@@H](C)CN3C(=O)[C@H](C)NC(=O)[C@@H]3CCCCN3C(=O)[C@@H]3CCCN3C2=O)c1,–
3.1 µM,3.1 µM,3.1 µM,< 0.1 µM,–,C[C@@H]1NC(=O)[C@@H]2CCCCN2C(=O)[C@@H]2CCCN2C(=O)[C@@H](NC(=O)[C@H](Cc2cc(F)cc(F)c2)NC(=O)Nc2ccc3c(c2)OCO3)[C@H](C)OC(=O)[C@@H]2CCCN2C1=O,–
0.05 µM,–,0.05 µM,–,–,C[C@@H]1C[C@H]2C(=O)O[C@@H](C)[C@H](NC(=O)[C@H](Cc3cc(F)cc(F)c3)NC(=O)Nc3ccc(OC(F)(F)F)cc3)C(=O)N3CCC[C@H]3C(=O)N3CCCC[C@H]3C(=O)N[C@@H](C)C(=O)N2C1,–
–,–,–,–,100 µM,CCc1ccc(NC(=O)N[C@@H](Cc2cc(F)cc(F)c2)C(=O)N[C@@H]2C(=O)N3CCC[C@H]3C(=O)N(C)[C@@H]([C@H](C)O)C(=O)N[C@@H](C)C(=O)N3C[C@@H](C)C[C@H]3C(=O)O[C@H]2C)cc1,IC50 (Vero): 33.8 µM
1.56 µM,–,–,12.5 µM,–,NC[C@H]1O[C@H](O[C@H]2[C@H](O)[C@@H](O[C@H]3O[C@H](CO)[C@@H](O)[C@H](N)[C@H]3O)[C@H](N)C[C@@H]2N)[C@H](O)[C@@H](O)[C@@H]1O [KANAMYCIN],MIC (Bacillus subtilis): 0.1 µM
50 µM,–,50 µM,–,–,CN[C@@H]1[C@H](O)[C@H](NC)[C@H]2O[C@@]3(O)C(=O)C[C@@H](C)O[C@H]3O[C@@H]2[C@H]1O [SPECTINOMYCIN],–
–,3.1 µM,3.1 µM,–,–,O=C(N[C@H](CO)[C@H](O)c1ccc([N+](=O)[O-])cc1)C(Cl)Cl [CHLORAMPHENICOL],–
–,–,–,–,100 µM,Cc1ccc(NC(=O)N[C@@H](Cc2cc(F)cc(F)c2)C(=O)N[C@H]2COC(=O)[C@@H]3CC(C)(C)CN3C(=O)[C@H](C)NC(=O)[C@@H]3CCCCN3C(=O)[C@@H]3CCCN3C2=O)cc1,–
0.4 µM,0.4 µM,–,–,–,C[C@H]1C[C@H]2C(=O)OC[C@H](NC(=O)[C@H](Cc3ccccc3)NC(=O)Nc3ccc(OC(F)(F)F)cc3)C(=O)N3CCC[C@H]3C(=O)N3CCCC[C@H]3C(=O)N[C@@H](C)C(=O)N2C1,–
0.2 µM,0.2 µM,0.2 µM,–,100 µM,C[C@@H]1NC(=O)[C@H](C)N(C)C(=O)[C@@H]2CCCN2C(=O)[C@@H](NC(=O)[C@H](Cc2cc(F)cc(F)c2)NC(=O)Nc2ccc(OC(F)(F)F)cc2)[C@H](C)OC(=O)[C@@H]2CCCN2C1=O,–
–,–,–,–,100 µM,CCc1ccc(NC(=O)N[C@@H](Cc2cc(F)cc(F)c2)C(=O)N[C@@H]2C(=O)N3CCC[C@H]3C(=O)N(C)[C@@H]([C@H](C)O)C(=O)N[C@@H](C)C(=O)N3C[C@H](C)C[C@H]3C(=O)O[C@H]2C)cc1,IC50 (Vero): 24.9 µM
0.2 µM,0.2 µM,0.2 µM,–,100 µM,CCc1ccc(NC(=O)N[C@@H](Cc2cc(F)cc(F)c2)C(=O)N[C@@H]2C(=O)N3CCC[C@H]3C(=O)N(C)[C@@H](C)C(=O)N[C@@H](C)C(=O)N3CCC[C@H]3C(=O)O[C@H]2C)cc1,–
–,–,–,1.5 µM,–,C[C@H]1C[C@H]2C(=O)O[C@@H](C)[C@H](NC(=O)[C@H](Cc3cc(F)cc(F)c3)NC(=O)Nc3ccc(C(F)(F)F)cc3)C(=O)N3CCC[C@H]3C(=O)N3CCCC[C@H]3C(=O)N[C@@H](C)C(=O)N2C1,–
–,–,–,–,> 200 µM,Cc1ccc(NC(=O)N[C@@H](Cc2cc(F)cc(F)c2)C(=O)N[C@H]2COC(=O)[C@@H]3C[C@@H](F)CN3C(=O)[C@H](C)NC(=O)[C@@H]3CCCCN3C(=O)[C@@H]3CCCN3C2=O)cc1,–
0.1 µM,0.1 µM,–,–,100 µM,C[C@H]1C[C@H]2C(=O)O[C@@H](C)[C@H](NC(=O)[C@H](Cc3cc(F)cc(F)c3)NC(=O)Nc3ccc(OC(F)(F)F)cc3)C(=O)N3C[C@H](O)C[C@H]3C(=O)N(C)[C@@H](C)C(=O)N[C@@H](C)C(=O)N2C1,–
–,–,–,–,100 µM,Cc1ccc(NC(=O)N[C@@H](Cc2cc(F)cc(F)c2)C(=O)N[C@H]2COC(=O)[C@@H]3C[C@H](C)CN3C(=O)[C@H](C)NC(=O)[C@@H]3CCCCN3C(=O)[C@@H]3CCCN3C2=O)cc1,–
–,–,–,0.1 µM,–,C[C@@H]1C[C@H]2C(=O)OC[C@H](NC(=O)[C@H](Cc3ccccc3)NC(=O)Nc3ccc(OC(F)(F)F)cc3)C(=O)N3CCC[C@H]3C(=O)N3CCCC[C@H]3C(=O)N[C@@H](C)C(=O)N2C1,–

# Further lines, the compound ahead of its results:
Compound,MIC (Staphylococcus aureus [1]),MIC (Staphylococcus aureus [2]),MIC (Staphylococcus aureus [3]),MIC (Streptococcus pyogenes),MIC (Staphylococcus aureus [4]),other results
CCc1cccc(NC(=O)N[C@@H](Cc2ccccc2)C(=O)N[C@H]2COC(=O)[C@@H]3C[C@@H](C)CN3C(=O)[C@H](C)NC(=O)[C@@H]3CCCCN3C(=O)[C@@H]3CCCN3C2=O)c1,0.6 µM,0.6 µM,–,–,–,–
Cc1ccc(NC(=O)N[C@@H](Cc2cc(F)cc(F)c2)C(=O)N[C@H]2COC(=O)[C@@H]3C[C@H](F)CN3C(=O)[C@H](C)NC(=O)[C@@H]3CCCCN3C(=O)[C@@H]3CCCN3C2=O)cc1,–,–,–,–,> 200 µM,–
C[C@@H]1C[C@H]2C(=O)O[C@@H](C)[C@H](NC(=O)[C@H](Cc3cc(F)cc(F)c3)NC(=O)Nc3ccc(OC(F)(F)F)cc3)C(=O)N3CCC[C@H]3C(=O)N(C)[C@@H]([C@H](C)O)C(=O)N[C@@H](C)C(=O)N2C1,–,–,–,–,–,IC50 [5]: 7.53 µM; IC50 (Vero): 23.9 µM
C[C@H]1C[C@H]2C(=O)O[C@@H](C)[C@H](NC(=O)[C@H](Cc3cc(F)cc(F)c3)NC(=O)Nc3ccc(OC(F)(F)F)cc3)C(=O)N3CCC[C@H]3C(=O)N(C)[C@@H](C)C(=O)N[C@@H](C)C(=O)N2C1,0.05 µM,0.05 µM,0.1 µM,0.23 µM,25 µM,MIC (Bacillus subtilis): 0.01 µM
Cc1ccc(NC(=O)N[C@@H](Cc2cc(F)cc(F)c2)C(=O)N[C@@H]2C(=O)N3CCC[C@H]3C(=O)N3CCCC[C@H]3C(=O)N[C@@H](C)C(=O)N3C[C@H](C)C[C@H]3C(=O)O[C@H]2C)cc1,0.05 µM,–,0.05 µM,0.2 µM,100 µM,IC50 (Vero): 40 µM; MIC (Streptococcus pneumoniae): 0.05 µM
CCc1ccc(NC(=O)N[C@@H](Cc2cc(F)cc(F)c2)C(=O)N[C@@H]2C(=O)N3CCC[C@H]3C(=O)N(C)[C@@H](C)C(=O)N[C@@H](C)C(=O)N3C[C@@H](C)C[C@H]3C(=O)O[C@H]2C)cc1,0.1 µM,–,0.1 µM,–,–,–
C[C@H]1C[C@H]2C(=O)OC[C@H](NC(=O)[C@H](Cc3cc(F)cc(F)c3)NC(=O)Nc3ccc4c(c3)OCO4)C(=O)N3CCC[C@H]3C(=O)N3CCCC[C@H]3C(=O)N[C@@H](C)C(=O)N2C1,3.1 µM,–,3.1 µM,–,–,–
C[C@H]1C[C@H]2C(=O)O[C@@H](C)[C@H](NC(=O)[C@H](Cc3cc(F)cc(F)c3)NC(=O)Nc3ccc(OC(F)(F)F)cc3)C(=O)N3CCC[C@H]3C(=O)N(C)[C@@H]([C@H](C)O)C(=O)N[C@@H](C)C(=O)N2C1,–,–,–,–,–,IC50 (Vero): 25.4 µM
Cc1ccc(NC(=O)N[C@@H](Cc2cc(F)cc(F)c2)C(=O)N[C@@H]2C(=O)N3CCC[C@H]3C(=O)N3CCCC[C@H]3C(=O)N[C@@H](C)C(=O)N3C[C@@H](C)C[C@H]3C(=O)O[C@H]2C)cc1,–,–,–,0.4 µM,100 µM,–
Cc1ccc(NC(=O)N[C@@H](Cc2ccccc2)C(=O)N[C@H]2COC(=O)[C@@H]3C[C@H](C)CN3C(=O)[C@H](C)NC(=O)[C@@H]3CCCCN3C(=O)[C@@H]3CCCN3C2=O)cc1,–,–,–,–,> 200 µM,–
Cc1ccc(NC(=O)N[C@@H](Cc2cc(F)cc(F)c2)C(=O)N[C@@H]2C(=O)N3CCC[C@H]3C(=O)N(C)[C@@H]([C@H](C)O)C(=O)N[C@@H](C)C(=O)N3C[C@H](C)C[C@H]3C(=O)O[C@H]2C)cc1,0.05 µM,–,0.1 µM,0.1 µM,–,MIC (Streptococcus pneumoniae): 0.02 µM; MIC (Bacillus subtilis): 0.05 µM
Cc1ccc(NC(=O)N[C@@H](Cc2cc(F)cc(F)c2)C(=O)N[C@@H]2C(=O)N3CCC[C@H]3C(=O)N3CCOC[C@H]3C(=O)N[C@@H](C)C(=O)N3C[C@H](C)C[C@H]3C(=O)O[C@H]2C)cc1,0.003 µM,–,–,0.02 µM,> 200 µM,MIC (Streptococcus pneumoniae): 0.002 µM
C[C@H]1C[C@H]2C(=O)O[C@@H](C)[C@H](NC(=O)[C@H](Cc3cc(F)cc(F)c3)NC(=O)Nc3ccc4c(c3)OCO4)C(=O)N3CCC[C@H]3C(=O)N3CCCC[C@H]3C(=O)N[C@@H](C)C(=O)N2C1,0.8 µM,–,0.8 µM,–,–,–
